Measured values as given in ChEMBL document CHEMBL1139487, “Discovery of corticotropin releasing factor 2 receptor selective sauvagine analogues for treatment of skeletal muscle atrophy” (J Med Chem, 2005).
Square brackets hold non-standard residues; d marks the D form. Peptide text beside a SMILES is read from it. pGlu = O=C1CC[C@@H](C(=O)O)N1

Legend:
[1] = molecular target: Corticotropin-releasing factor receptor 2 (Mus musculus) (UniProt Q60748); test: In vitro agonistic activity against mouse corticotropin releasing factor 2 receptor; format: functional
Mus musculus = species on record: Mus musculus; test: Selectivity ratio of EC50s for mouse corticotropin releasing factor receptors 1 and 2
[2] = molecular target: Corticotropin-releasing factor receptor 2 (Mus musculus, UniProt Q60748); test: In vitro effective concentration for mouse corticotropin releasing factor 2 receptor
[3] = molecular target: T1, Corticotropin-releasing factor receptor 1 (Mus musculus) (UniProt P35347); test: In vitro agonistic activity against mouse corticotropin releasing factor 1 receptor; format: functional
T1 sequence (whole entry): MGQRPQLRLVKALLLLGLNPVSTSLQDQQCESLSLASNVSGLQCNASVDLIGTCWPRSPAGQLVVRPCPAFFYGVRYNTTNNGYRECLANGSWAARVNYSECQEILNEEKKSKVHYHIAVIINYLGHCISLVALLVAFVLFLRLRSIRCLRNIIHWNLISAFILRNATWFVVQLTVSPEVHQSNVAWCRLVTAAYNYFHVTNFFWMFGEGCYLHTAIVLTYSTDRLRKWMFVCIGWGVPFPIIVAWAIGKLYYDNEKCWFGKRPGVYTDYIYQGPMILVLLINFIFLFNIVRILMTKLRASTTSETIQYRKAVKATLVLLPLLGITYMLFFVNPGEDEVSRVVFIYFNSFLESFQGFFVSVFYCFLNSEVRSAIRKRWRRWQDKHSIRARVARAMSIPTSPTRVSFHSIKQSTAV

[4] = molecular target: T2, Corticotropin-releasing factor receptor 1 (Mus musculus, UniProt P35347); test: In vitro effective concentration for mouse corticotropin releasing factor 1 receptor
T2 sequence (P35347 whole entry): T1 sequence (whole entry)

Sequence of Corticotropin-releasing factor receptor 2 (Q60748 whole entry): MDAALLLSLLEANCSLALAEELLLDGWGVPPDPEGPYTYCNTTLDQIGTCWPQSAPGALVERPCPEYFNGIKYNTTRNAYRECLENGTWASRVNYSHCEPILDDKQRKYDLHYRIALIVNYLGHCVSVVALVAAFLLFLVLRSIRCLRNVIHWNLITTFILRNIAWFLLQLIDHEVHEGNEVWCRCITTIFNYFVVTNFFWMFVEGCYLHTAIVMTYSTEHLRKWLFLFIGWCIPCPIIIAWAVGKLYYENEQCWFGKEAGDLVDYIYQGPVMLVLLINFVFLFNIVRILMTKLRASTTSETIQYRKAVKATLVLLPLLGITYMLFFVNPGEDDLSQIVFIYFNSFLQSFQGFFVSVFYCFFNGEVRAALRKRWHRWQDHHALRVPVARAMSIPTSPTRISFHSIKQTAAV
Sequence of Corticotropin-releasing factor receptor 2 (Mus musculus) (Q60748 whole entry): as above

Structure (SMILES)	Emax [1]	Selectivity (Mus musculus)	EC50 [2]	Emax [3]	EC50 [4]
CC[C@H](C)[C@H](NC(=O)[C@@H](NC(=O)[C@H](CC(=O)O)NC(=O)[C@H](CC(C)C)NC(=O)[C@H](CC(C)C)NC(=O)[C@H](CC(C)C)NC(=O)[C@H](CCCN=C(N)N)NC(=O)[C@H](CC(N)=O)NC(=O)[C@H](CC(N)=O)NC(=O)[C@H](C)NC(=O)[C@H](C)NC(=O)[C@H](CCC(N)=O)NC(=O)[C@H](CCC(N)=O)NC(=O)[C@H](CCCCN)NC(=O)[C@H](CCC(=O)O)NC(=O)[C@H](CCCCN)NC(=O)[C@H](CCC(=O)O)NC(=O)[C@H](CCC(N)=O)NC(=O)[C@H](CCCCN)NC(=O)[C@H](CCC(=O)O)NC(=O)[C@@H](NC(=O)[C@H](CCC(=O)O)NC(=O)[C@@H](NC(=O)[C@H](CCSC)NC(=O)[C@H](CCCCN)NC(=O)[C@H](CCCN=C(N)N)NC(=O)[C@H](CC(C)C)NC(=O)[C@H](CC(C)C)NC(=O)[C@@H](NC(=O)[C@H](Cc1ccc(O)cc1)NC(=O)[C@@H]1CCCN1C(=O)[C@H](CC(C)C)NC(=O)[C@H](CC(=O)O)NC(=O)[C@@H](NC(=O)[C@H](CO)NC(=O)[C@@H](NC(=O)[C@@H]1CCCN1C(=O)[C@@H]1CCCN1C(=O)CNC(=O)[C@@H]1CCC(=O)N1)[C@@H](C)CC)[C@@H](C)CC)C(C)C)[C@@H](C)CC)[C@@H](C)CC)[C@@H](C)O)C(=O)O	100%	20	5 nM	80%	100 nM
CC[C@H](C)[C@H](NC(=O)[C@@H](NC(=O)[C@H](CC(=O)O)NC(=O)[C@H](CC(C)C)NC(=O)[C@H](CC(C)C)NC(=O)[C@H](CC(C)C)NC(=O)[C@H](CCCN=C(N)N)NC(=O)[C@H](CC(N)=O)NC(=O)[C@H](CC(N)=O)NC(=O)[C@H](C)NC(=O)[C@H](C)NC(=O)[C@H](CCC(N)=O)NC(=O)[C@H](CCC(N)=O)NC(=O)[C@H](CCCCN)NC(=O)[C@H](CCC(=O)O)NC(=O)[C@H](CCCCN)NC(=O)[C@H](CCC(=O)O)NC(=O)[C@H](CCC(N)=O)NC(=O)[C@H](CCCCN)NC(=O)[C@H](CCC(=O)O)NC(=O)[C@@H](NC(=O)[C@H](CCC(=O)O)NC(=O)[C@@H](NC(=O)[C@H](CCSC)NC(=O)[C@H](CCCCN)NC(=O)[C@H](CCCN=C(N)N)NC(=O)[C@H](CC(C)C)NC(=O)[C@H](CC(C)C)NC(=O)[C@H](CC(C)C)NC(=O)[C@H](CCC(N)=O)NC(=O)[C@@H]1CCCN1C(=O)[C@H](CC(C)C)NC(=O)[C@H](CC(=O)O)NC(=O)[C@@H](NC(=O)[C@H](CO)NC(=O)[C@@H](NC(=O)[C@@H]1CCCN1C(=O)[C@@H]1CCCN1C(=O)CNC(=O)[C@@H]1CCC(=O)N1)[C@@H](C)CC)[C@@H](C)CC)[C@@H](C)CC)[C@@H](C)CC)[C@@H](C)O)C(=O)O	93%	16	27.6 nM	96%	447 nM
CC[C@H](C)[C@H](NC(=O)[C@@H](NC(=O)[C@H](CC(=O)O)NC(=O)[C@H](CC(C)C)NC(=O)[C@H](CC(C)C)NC(=O)[C@H](CC(C)C)NC(=O)[C@H](CCCN=C(N)N)NC(=O)[C@H](CC(N)=O)NC(=O)[C@H](CC(N)=O)NC(=O)[C@H](C)NC(=O)[C@H](C)NC(=O)[C@H](CCC(N)=O)NC(=O)[C@H](CCC(N)=O)NC(=O)[C@H](CCCCN)NC(=O)[C@H](CCC(=O)O)NC(=O)[C@H](CCCCN)NC(=O)[C@H](CCC(=O)O)NC(=O)[C@H](CCC(N)=O)NC(=O)[C@H](CCCCN)NC(=O)[C@H](CCC(=O)O)NC(=O)[C@@H](NC(=O)[C@H](CCC(=O)O)NC(=O)[C@@H](NC(=O)[C@H](CCSC)NC(=O)[C@H](CCCCN)NC(=O)[C@H](CCCN=C(N)N)NC(=O)[C@H](CC(C)C)NC(=O)[C@H](CC(C)C)NC(=O)[C@H](Cc1ccccc1)NC(=O)[C@@H](NC(=O)[C@@H]1CCCN1C(=O)[C@H](CC(C)C)NC(=O)[C@H](CC(=O)O)NC(=O)[C@@H](NC(=O)[C@H](CO)NC(=O)[C@@H](NC(=O)[C@@H]1CCCN1C(=O)[C@@H]1CCCN1C(=O)CNC(=O)[C@@H]1CCC(=O)N1)[C@@H](C)CC)[C@@H](C)CC)[C@@H](C)O)[C@@H](C)CC)[C@@H](C)CC)[C@@H](C)O)C(=O)O	87%	49	19.2 nM	64%	943 nM
CC[C@H](C)[C@H](NC(=O)[C@@H](NC(=O)[C@H](CC(=O)O)NC(=O)[C@H](CC(C)C)NC(=O)[C@H](CC(C)C)NC(=O)[C@H](CC(C)C)NC(=O)[C@H](CCCN=C(N)N)NC(=O)[C@H](CC(N)=O)NC(=O)[C@H](CC(N)=O)NC(=O)[C@H](C)NC(=O)[C@H](C)NC(=O)[C@H](CCC(N)=O)NC(=O)[C@H](CCC(N)=O)NC(=O)[C@H](CCCCN)NC(=O)[C@H](CCC(=O)O)NC(=O)[C@H](CCCCN)NC(=O)[C@H](CCC(=O)O)NC(=O)[C@H](CCC(N)=O)NC(=O)[C@H](CCCCN)NC(=O)[C@H](CCC(=O)O)NC(=O)[C@@H](NC(=O)[C@H](CCC(=O)O)NC(=O)[C@@H](NC(=O)[C@H](CCSC)NC(=O)[C@H](CCCCN)NC(=O)[C@H](CCCN=C(N)N)NC(=O)[C@H](CC(C)C)NC(=O)[C@H](CC(C)C)NC(=O)[C@H](Cc1ccc(O)cc1)NC(=O)[C@H](CC(C)C)NC(=O)[C@@H]1CCCN1C(=O)[C@H](CC(C)C)NC(=O)[C@H](CC(=O)O)NC(=O)[C@@H](NC(=O)[C@H](CO)NC(=O)[C@@H](NC(=O)[C@@H]1CCCN1C(=O)[C@@H]1CCCN1C(=O)CNC(=O)[C@@H]1CCC(=O)N1)[C@@H](C)CC)[C@@H](C)CC)[C@@H](C)CC)[C@@H](C)CC)[C@@H](C)O)C(=O)O ([pGlu]GPPISIDLPLYLLRKMIEIEKQEKEKQQAANNRLLLDTI-OH)	73%	16		79%	
CC[C@H](C)[C@H](NC(=O)[C@@H](NC(=O)[C@H](CC(=O)O)NC(=O)[C@H](CC(C)C)NC(=O)[C@H](CC(C)C)NC(=O)[C@H](CC(C)C)NC(=O)[C@H](CCCN=C(N)N)NC(=O)[C@H](CC(N)=O)NC(=O)[C@H](CC(N)=O)NC(=O)[C@H](C)NC(=O)[C@H](C)NC(=O)[C@H](CCC(N)=O)NC(=O)[C@H](CCC(N)=O)NC(=O)[C@H](CCCCN)NC(=O)[C@H](CCC(=O)O)NC(=O)[C@H](CCCCN)NC(=O)[C@H](CCC(=O)O)NC(=O)[C@H](CCC(N)=O)NC(=O)[C@H](CCCCN)NC(=O)[C@H](CCC(=O)O)NC(=O)[C@@H](NC(=O)[C@H](CCC(=O)O)NC(=O)[C@@H](NC(=O)[C@H](CCSC)NC(=O)[C@H](CCCCN)NC(=O)[C@H](CCCN=C(N)N)NC(=O)[C@H](CC(C)C)NC(=O)[C@H](CC(C)C)NC(=O)[C@H](Cc1ccc(O)cc1)NC(=O)[C@H](CCC(N)=O)NC(=O)[C@@H]1CCCN1C(=O)[C@H](CC(C)C)NC(=O)[C@H](CC(=O)O)NC(=O)[C@@H](NC(=O)[C@H](CO)NC(=O)[C@@H](NC(=O)[C@@H]1CCCN1C(=O)[C@@H]1CCCN1C(=O)CNC(=O)[C@@H]1CCC(=O)N1)[C@@H](C)CC)[C@@H](C)CC)[C@@H](C)CC)[C@@H](C)CC)[C@@H](C)O)C(=O)O	96%	30		100%	
CC[C@H](C)[C@H](NC(=O)[C@@H](NC(=O)[C@H](CC(=O)O)NC(=O)[C@H](CC(C)C)NC(=O)[C@H](CC(C)C)NC(=O)[C@H](CC(C)C)NC(=O)[C@H](CCCN=C(N)N)NC(=O)[C@H](CC(N)=O)NC(=O)[C@H](CC(N)=O)NC(=O)[C@H](C)NC(=O)[C@H](C)NC(=O)[C@H](CCC(N)=O)NC(=O)[C@H](CCC(N)=O)NC(=O)[C@H](CCCCN)NC(=O)[C@H](CCC(=O)O)NC(=O)[C@H](CCCCN)NC(=O)[C@H](CCC(=O)O)NC(=O)[C@H](CCC(N)=O)NC(=O)[C@H](CCCCN)NC(=O)[C@H](CCC(=O)O)NC(=O)[C@@H](NC(=O)[C@H](CCC(=O)O)NC(=O)[C@@H](NC(=O)[C@H](CCSC)NC(=O)[C@H](CCCCN)NC(=O)[C@H](CCCN=C(N)N)NC(=O)[C@H](CC(C)C)NC(=O)[C@H](CC(C)C)NC(=O)[C@H](Cc1ccc(O)cc1)NC(=O)[C@H](Cc1ccc(O)cc1)NC(=O)[C@@H]1CCCN1C(=O)[C@H](CC(C)C)NC(=O)[C@H](CC(=O)O)NC(=O)[C@@H](NC(=O)[C@H](CO)NC(=O)[C@@H](NC(=O)[C@@H]1CCCN1C(=O)[C@@H]1CCCN1C(=O)CNC(=O)[C@@H]1CCC(=O)N1)[C@@H](C)CC)[C@@H](C)CC)[C@@H](C)CC)[C@@H](C)CC)[C@@H](C)O)C(=O)O	93%	15		99%	
CC[C@H](C)[C@H](NC(=O)[C@@H](NC(=O)[C@H](CC(=O)O)NC(=O)[C@H](CC(C)C)NC(=O)[C@H](CC(C)C)NC(=O)[C@H](CC(C)C)NC(=O)[C@H](CCCN=C(N)N)NC(=O)[C@H](CC(N)=O)NC(=O)[C@H](CC(N)=O)NC(=O)[C@H](C)NC(=O)[C@H](C)NC(=O)[C@H](CCC(N)=O)NC(=O)[C@H](CCC(N)=O)NC(=O)[C@H](CCCCN)NC(=O)[C@H](CCC(=O)O)NC(=O)[C@H](CCCCN)NC(=O)[C@H](CCC(=O)O)NC(=O)[C@H](CCC(N)=O)NC(=O)[C@H](CCCCN)NC(=O)[C@H](CCC(=O)O)NC(=O)[C@@H](NC(=O)[C@H](CCC(=O)O)NC(=O)[C@@H](NC(=O)[C@H](CCSC)NC(=O)[C@H](CCCCN)NC(=O)[C@H](CCCN=C(N)N)NC(=O)[C@H](CC(C)C)NC(=O)[C@H](CC(C)C)NC(=O)[C@H](CC(C)C)NC(=O)[C@H](Cc1ccc(O)cc1)NC(=O)[C@@H]1CCCN1C(=O)[C@H](CC(C)C)NC(=O)[C@H](CC(=O)O)NC(=O)[C@@H](NC(=O)[C@H](CO)NC(=O)[C@@H](NC(=O)[C@@H]1CCCN1C(=O)[C@@H]1CCCN1C(=O)CNC(=O)[C@@H]1CCC(=O)N1)[C@@H](C)CC)[C@@H](C)CC)[C@@H](C)CC)[C@@H](C)CC)[C@@H](C)O)C(=O)O	94%	15		86%	
